# Test results published in paper PMC4490784, “Compensatory induction of MYC expression by sustained CDK9 inhibition via a BRD4-dependent mechanism” (eLife, 2015).
# Assays:
# Assay in all cases: KINOMEscan binding assay
# [1] = target: T1, AURKC (Homo sapiens, UniProt Q9UQB9); conditions: read-out: % Retention on Solid Support
# T1 construct: purchased DiscoveRx KINOMEscan
# Outline: (§1)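 Selectivity profiling used a competition-binding format directed at the kinase active site. The inhibitor was screened at 1 and 10 µM over a panel exceeding 400 kinases.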
# [2] = target: T2, BRK (Homo sapiens, UniProt Q13882); conditions: read-out: % Retention on Solid Support
# T2 construct: purchased DiscoveRx KINOMEscan
# Outline: as §1
# [3] = target: T3, CAMK2A (Homo sapiens, UniProt Q9UQM7); conditions: read-out: % Retention on Solid Support
# T3 construct: purchased DiscoveRx KINOMEscan
# Outline: as §1
# [4] = target: T4, CSNK1A1L (Homo sapiens, UniProt Q8N752); conditions: read-out: % Retention on Solid Support
# T4 construct: purchased DiscoveRx KINOMEscan
# Outline: as §1
# [5] = target: T5, DCAMKL1 (Homo sapiens, UniProt O15075)
# T5 construct: purchased DiscoveRx KINOMEscan
# Outline: as §1
# [6] = target: T6, DRAK2 (Homo sapiens, UniProt O94768); conditions: read-out: % Retention on Solid Support
# T6 construct: purchased DiscoveRx KINOMEscan
# Outline: as §1
# [7] = target: T7, FLT3 (Homo sapiens, UniProt P36888); conditions: read-out: % Retention on Solid Support
# T7 construct: purchased DiscoveRx KINOMEscan
# Outline: as §1
# [8] = test system: FLT3(ITD)
# Outline: as §1
# [9] = target: T8, IKK-alpha (Homo sapiens, UniProt O15111); conditions: read-out: % Retention on Solid Support
# T8 construct: purchased DiscoveRx KINOMEscan
# Outline: as §1
# [10] = target: T9, INSR (Homo sapiens, UniProt P06213); conditions: read-out: % Retention on Solid Support
# T9 construct: purchased DiscoveRx KINOMEscan
# Outline: as §1
# [11] = target: T10, INSRR (Homo sapiens, UniProt P14616); conditions: read-out: % Retention on Solid Support
# T10 construct: purchased DiscoveRx KINOMEscan
# Outline: as §1
# [12] = target: T11, JNK2 (Homo sapiens, UniProt P45984)
# T11 construct: purchased DiscoveRx KINOMEscan
# Outline: as §1
# [13] = target: T12, KIT(D816H) (Homo sapiens, UniProt P10721, D816H); conditions: 1 µM i-CDK9; read-out: % Retention on Solid Support
# T12 construct: purchased DiscoveRx KINOMEscan
# Outline: as §1
# [14] = target: T13, MAP4K2 (Homo sapiens, UniProt Q12851); conditions: read-out: % Retention on Solid Support
# T13 construct: purchased DiscoveRx KINOMEscan
# Outline: as §1
# [15] = target: T14, MERTK (Homo sapiens, UniProt Q12866); conditions: read-out: % Retention on Solid Support
# T14 construct: purchased DiscoveRx KINOMEscan
# Outline: as §1
# [16] = target: T15, MYLK (Homo sapiens, UniProt Q15746); conditions: read-out: % Retention on Solid Support
# T15 construct: purchased DiscoveRx KINOMEscan
# Outline: as §1
# [17] = target: T16, PAK2 (Homo sapiens, UniProt Q13177); conditions: read-out: % Retention on Solid Support
# T16 construct: purchased DiscoveRx KINOMEscan
# Outline: as §1
# [18] = target: T17, RIOK3 (Homo sapiens, UniProt O14730); conditions: read-out: % Retention on Solid Support
# T17 construct: purchased DiscoveRx KINOMEscan
# Outline: as §1
# [19] = target: T18, SYK (Homo sapiens, UniProt P43405)
# T18 construct: purchased DiscoveRx KINOMEscan
# Outline: as §1
# [20] = target: T19, TAOK3 (Homo sapiens, UniProt Q9H2K8); conditions: read-out: % Retention on Solid Support
# T19 construct: purchased DiscoveRx KINOMEscan
# T19 sequence (Q9H2K8 1-898): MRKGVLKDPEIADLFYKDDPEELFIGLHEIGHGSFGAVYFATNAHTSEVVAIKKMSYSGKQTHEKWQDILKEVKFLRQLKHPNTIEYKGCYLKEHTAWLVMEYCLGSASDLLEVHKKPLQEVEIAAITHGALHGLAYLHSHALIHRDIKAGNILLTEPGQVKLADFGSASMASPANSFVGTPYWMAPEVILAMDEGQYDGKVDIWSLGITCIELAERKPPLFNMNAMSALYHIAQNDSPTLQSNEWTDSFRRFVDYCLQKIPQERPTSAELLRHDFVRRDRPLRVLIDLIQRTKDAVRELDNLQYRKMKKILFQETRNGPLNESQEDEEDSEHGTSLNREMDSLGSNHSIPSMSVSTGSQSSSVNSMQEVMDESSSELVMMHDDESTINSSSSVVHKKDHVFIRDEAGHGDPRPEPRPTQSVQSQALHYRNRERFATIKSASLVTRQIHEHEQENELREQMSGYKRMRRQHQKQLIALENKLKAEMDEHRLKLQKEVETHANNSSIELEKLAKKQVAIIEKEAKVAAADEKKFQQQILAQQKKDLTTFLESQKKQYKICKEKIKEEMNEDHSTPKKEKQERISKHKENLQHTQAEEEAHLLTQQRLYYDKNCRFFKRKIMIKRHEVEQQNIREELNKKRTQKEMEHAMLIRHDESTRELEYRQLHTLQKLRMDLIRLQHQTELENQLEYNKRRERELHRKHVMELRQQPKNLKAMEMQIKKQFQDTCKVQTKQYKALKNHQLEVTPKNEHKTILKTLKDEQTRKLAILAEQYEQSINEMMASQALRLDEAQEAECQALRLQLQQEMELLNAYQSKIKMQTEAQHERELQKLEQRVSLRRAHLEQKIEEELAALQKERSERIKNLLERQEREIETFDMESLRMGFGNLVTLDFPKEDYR
# Outline: as §1
# T5 sequence (O15075 whole entry): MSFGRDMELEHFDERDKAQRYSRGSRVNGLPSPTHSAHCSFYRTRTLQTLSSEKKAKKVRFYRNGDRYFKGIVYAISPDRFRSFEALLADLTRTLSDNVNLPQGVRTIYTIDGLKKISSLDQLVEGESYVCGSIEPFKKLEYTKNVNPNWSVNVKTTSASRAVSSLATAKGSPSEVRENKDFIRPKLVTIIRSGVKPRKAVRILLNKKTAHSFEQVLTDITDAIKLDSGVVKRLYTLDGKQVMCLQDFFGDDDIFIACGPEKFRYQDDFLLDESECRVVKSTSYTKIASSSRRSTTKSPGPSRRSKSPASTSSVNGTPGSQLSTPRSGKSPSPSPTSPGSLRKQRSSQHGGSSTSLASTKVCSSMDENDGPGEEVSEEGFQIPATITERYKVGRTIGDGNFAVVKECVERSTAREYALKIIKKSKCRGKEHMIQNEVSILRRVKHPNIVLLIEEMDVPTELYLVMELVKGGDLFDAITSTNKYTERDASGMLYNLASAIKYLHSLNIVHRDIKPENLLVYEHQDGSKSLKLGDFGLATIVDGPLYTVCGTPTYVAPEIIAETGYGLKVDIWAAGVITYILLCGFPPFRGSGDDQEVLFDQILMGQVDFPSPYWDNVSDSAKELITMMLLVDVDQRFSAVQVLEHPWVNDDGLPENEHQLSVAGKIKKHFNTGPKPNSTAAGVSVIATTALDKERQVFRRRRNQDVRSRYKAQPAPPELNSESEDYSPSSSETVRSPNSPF
# T15 sequence (Q15746 whole entry): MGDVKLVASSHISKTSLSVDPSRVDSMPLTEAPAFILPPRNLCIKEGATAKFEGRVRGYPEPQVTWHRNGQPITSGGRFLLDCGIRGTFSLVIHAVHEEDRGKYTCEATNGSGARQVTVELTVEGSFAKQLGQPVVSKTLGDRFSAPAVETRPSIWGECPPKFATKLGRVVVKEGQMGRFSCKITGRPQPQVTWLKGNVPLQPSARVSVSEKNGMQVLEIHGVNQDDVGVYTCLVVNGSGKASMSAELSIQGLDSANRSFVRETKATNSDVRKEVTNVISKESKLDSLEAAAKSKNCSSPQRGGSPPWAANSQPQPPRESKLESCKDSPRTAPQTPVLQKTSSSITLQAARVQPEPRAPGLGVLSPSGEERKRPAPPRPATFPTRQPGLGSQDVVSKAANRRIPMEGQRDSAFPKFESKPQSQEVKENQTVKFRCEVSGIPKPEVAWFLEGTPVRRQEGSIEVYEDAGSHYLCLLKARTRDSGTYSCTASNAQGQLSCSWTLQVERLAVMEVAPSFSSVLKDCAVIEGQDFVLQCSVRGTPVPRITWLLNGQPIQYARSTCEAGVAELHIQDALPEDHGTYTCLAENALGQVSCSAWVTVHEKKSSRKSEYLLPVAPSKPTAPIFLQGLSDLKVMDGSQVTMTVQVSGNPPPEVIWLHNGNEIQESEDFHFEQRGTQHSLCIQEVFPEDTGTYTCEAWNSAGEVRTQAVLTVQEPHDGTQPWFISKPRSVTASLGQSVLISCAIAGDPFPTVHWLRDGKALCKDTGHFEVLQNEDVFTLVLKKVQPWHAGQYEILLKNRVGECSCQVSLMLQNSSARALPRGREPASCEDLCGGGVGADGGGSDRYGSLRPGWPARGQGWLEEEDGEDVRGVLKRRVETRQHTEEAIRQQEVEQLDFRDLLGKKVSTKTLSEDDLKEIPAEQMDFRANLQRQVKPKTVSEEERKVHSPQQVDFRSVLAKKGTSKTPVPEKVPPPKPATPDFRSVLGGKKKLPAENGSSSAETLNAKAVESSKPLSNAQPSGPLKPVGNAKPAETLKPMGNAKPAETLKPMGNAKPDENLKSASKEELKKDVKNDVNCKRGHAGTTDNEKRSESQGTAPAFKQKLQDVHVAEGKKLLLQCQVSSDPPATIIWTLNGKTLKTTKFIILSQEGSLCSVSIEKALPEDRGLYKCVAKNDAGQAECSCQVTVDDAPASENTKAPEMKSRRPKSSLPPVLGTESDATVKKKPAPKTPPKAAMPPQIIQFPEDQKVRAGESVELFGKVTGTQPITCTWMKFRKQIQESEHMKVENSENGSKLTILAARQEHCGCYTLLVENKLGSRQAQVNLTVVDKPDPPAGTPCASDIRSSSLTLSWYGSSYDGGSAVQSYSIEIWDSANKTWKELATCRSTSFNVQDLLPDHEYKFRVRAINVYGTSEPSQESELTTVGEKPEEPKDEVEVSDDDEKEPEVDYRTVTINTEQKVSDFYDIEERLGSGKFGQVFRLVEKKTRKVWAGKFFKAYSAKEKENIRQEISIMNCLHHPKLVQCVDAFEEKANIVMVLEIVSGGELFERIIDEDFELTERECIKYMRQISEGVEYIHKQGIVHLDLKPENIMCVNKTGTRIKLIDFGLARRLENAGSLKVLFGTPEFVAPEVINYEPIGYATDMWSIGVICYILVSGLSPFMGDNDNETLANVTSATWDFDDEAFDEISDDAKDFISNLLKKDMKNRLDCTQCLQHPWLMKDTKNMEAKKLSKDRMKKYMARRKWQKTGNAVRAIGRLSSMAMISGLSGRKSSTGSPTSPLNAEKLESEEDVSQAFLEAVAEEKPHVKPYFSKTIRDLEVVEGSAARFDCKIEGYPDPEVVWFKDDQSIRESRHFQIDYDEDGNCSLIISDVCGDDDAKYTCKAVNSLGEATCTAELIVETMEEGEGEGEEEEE
# T10 sequence (P14616 27-1297): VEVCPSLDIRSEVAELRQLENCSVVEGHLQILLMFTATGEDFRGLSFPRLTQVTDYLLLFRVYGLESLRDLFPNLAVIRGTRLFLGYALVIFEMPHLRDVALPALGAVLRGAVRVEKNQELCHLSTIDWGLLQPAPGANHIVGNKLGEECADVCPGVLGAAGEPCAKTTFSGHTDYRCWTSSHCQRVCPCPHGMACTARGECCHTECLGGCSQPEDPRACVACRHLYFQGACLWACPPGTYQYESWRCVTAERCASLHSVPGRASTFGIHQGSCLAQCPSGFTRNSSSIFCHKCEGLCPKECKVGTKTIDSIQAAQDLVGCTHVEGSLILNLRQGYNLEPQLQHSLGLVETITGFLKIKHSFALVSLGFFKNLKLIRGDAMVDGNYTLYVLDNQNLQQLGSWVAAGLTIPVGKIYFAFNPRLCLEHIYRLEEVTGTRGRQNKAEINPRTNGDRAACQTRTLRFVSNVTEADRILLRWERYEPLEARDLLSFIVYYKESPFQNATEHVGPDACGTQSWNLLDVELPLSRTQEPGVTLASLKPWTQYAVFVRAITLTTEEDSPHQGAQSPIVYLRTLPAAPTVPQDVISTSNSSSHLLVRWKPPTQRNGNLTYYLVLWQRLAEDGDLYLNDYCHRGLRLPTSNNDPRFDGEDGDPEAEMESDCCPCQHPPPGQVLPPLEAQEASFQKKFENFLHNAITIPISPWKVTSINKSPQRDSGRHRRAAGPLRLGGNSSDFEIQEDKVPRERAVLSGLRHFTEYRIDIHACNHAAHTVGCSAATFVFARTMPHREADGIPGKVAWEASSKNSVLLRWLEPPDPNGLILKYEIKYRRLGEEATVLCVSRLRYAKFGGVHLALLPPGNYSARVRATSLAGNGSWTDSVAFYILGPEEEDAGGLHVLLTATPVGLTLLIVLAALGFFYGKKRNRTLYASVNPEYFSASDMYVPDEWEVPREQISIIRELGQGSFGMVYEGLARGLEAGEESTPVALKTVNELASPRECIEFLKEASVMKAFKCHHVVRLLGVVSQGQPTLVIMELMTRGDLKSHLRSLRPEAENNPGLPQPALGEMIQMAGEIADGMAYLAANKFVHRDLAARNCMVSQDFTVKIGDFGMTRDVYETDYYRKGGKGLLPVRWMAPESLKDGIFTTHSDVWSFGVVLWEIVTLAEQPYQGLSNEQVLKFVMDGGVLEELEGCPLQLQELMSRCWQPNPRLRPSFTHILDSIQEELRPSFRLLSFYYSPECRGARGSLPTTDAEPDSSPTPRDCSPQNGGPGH
# T4 sequence (Q8N752 whole entry): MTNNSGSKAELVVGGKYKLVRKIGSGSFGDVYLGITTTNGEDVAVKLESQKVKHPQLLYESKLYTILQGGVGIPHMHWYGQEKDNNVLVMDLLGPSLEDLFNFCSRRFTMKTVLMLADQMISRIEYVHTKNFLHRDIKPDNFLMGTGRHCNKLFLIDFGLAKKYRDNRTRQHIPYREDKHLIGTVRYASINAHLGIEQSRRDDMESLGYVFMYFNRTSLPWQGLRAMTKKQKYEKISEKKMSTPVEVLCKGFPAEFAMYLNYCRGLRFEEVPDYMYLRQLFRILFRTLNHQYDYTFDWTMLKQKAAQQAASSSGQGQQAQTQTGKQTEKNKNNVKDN
# T17 sequence (O14730 whole entry): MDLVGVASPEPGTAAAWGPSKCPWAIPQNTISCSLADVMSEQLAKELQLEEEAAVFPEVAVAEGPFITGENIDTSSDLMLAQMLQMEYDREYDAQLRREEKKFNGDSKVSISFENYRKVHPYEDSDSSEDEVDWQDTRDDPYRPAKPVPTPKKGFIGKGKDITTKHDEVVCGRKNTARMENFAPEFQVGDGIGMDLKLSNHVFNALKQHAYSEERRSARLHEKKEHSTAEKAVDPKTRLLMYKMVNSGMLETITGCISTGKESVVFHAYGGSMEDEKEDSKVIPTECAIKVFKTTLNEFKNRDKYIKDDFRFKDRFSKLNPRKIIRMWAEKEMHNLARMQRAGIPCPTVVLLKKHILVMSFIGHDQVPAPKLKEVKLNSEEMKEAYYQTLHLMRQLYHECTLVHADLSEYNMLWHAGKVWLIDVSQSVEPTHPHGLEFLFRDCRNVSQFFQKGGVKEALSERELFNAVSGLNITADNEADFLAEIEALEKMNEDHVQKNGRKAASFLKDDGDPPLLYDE
# T1 sequence (Q9UQB9 whole entry): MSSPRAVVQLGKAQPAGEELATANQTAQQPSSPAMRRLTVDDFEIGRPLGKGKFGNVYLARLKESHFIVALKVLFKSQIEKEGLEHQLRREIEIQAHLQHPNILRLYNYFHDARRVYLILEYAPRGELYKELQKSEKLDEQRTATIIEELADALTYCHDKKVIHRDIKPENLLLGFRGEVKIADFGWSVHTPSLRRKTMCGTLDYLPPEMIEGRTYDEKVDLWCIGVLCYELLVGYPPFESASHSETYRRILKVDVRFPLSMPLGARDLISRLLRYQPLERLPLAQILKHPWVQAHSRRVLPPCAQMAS
compound,measurement,setting,value
"N[C@H]1CC[C@H](Nc2cc(-c3cccc(NCc4cccc(F)c4)n3)c(Cl)cn2)CC1 [i-CDK9, N2′-(trans-4-aminocyclohexyl)-5′-chloro-N6-(3-fluorobenzyl)-2,4′-bipyridine-2′,6-diamine]",remaining binding at 1 µM,[1]; 1 µM i-CDK9,100%
same,remaining binding at 10 µM,[1]; 10 µM i-CDK9,71%
same,remaining binding at 1 µM,[2]; 1 µM i-CDK9,70%
same,remaining binding at 10 µM,[2]; 10 µM i-CDK9,100%
same,remaining binding at 1 µM,[3]; 1 µM i-CDK9,91%
same,remaining binding at 10 µM,[3]; 10 µM i-CDK9,81%
same,remaining binding at 1 µM,[4]; 1 µM i-CDK9,97%
same,remaining binding at 10 µM,[4]; 10 µM i-CDK9,100%
same,% Retention on Solid Support,[5]; 1 µM i-CDK9,100%
same,% Retention on Solid Support,[5]; 10 µM i-CDK9,100%
same,remaining binding at 1 µM,[6]; 1 µM i-CDK9,82%
same,remaining binding at 10 µM,[6]; 10 µM i-CDK9,72%
same,remaining binding at 1 µM,[7]; 1 µM i-CDK9,78%
same,remaining binding at 10 µM,[7]; 10 µM i-CDK9,100%
same,% Retention on Solid Support,[8]; 1 µM i-CDK9,100%
same,% Retention on Solid Support,[8]; 10 µM i-CDK9,72%
same,remaining binding at 1 µM,[9]; 1 µM i-CDK9,85%
same,remaining binding at 10 µM,[9]; 10 µM i-CDK9,71%
same,remaining binding at 1 µM,[10]; 1 µM i-CDK9,100%
same,remaining binding at 10 µM,[10]; 10 µM i-CDK9,81%
same,remaining binding at 1 µM,[11]; 1 µM i-CDK9,92%
same,remaining binding at 10 µM,[11]; 10 µM i-CDK9,97%
same,% Retention on Solid Support,[12]; 1 µM i-CDK9,98%
same,% Retention on Solid Support,[12]; 10 µM i-CDK9,78%
same,remaining binding at 1 µM,[13],100%
same,remaining binding at 1 µM,[14]; 1 µM i-CDK9,64%
same,remaining binding at 10 µM,[14]; 10 µM i-CDK9,10%
same,remaining binding at 1 µM,[15]; 1 µM i-CDK9,100%
same,remaining binding at 10 µM,[15]; 10 µM i-CDK9,60%
same,remaining binding at 1 µM,[16]; 1 µM i-CDK9,100%
same,remaining binding at 10 µM,[16]; 10 µM i-CDK9,100%
same,remaining binding at 1 µM,[17]; 1 µM i-CDK9,98%
same,remaining binding at 10 µM,[17]; 10 µM i-CDK9,91%
same,remaining binding at 1 µM,[18]; 1 µM i-CDK9,86%
same,remaining binding at 10 µM,[18]; 10 µM i-CDK9,73%
same,% Retention on Solid Support,[19]; 1 µM i-CDK9,86%
same,% Retention on Solid Support,[19]; 10 µM i-CDK9,100%
same,remaining binding at 1 µM,[20]; 1 µM i-CDK9,12%
same,remaining binding at 10 µM,[20]; 10 µM i-CDK9,1.2%
